The source of these data is patent US20230002375A1, “HYDROPYRAZINO[1,2-B]ISOQUINOLINE COMPOUNDS FOR THE TREATMENT OF AUTOIMMUNE DISEASE” (Hoffmann-La Roche Inc., priority 2019, published 2023).

For the assay, the target named is T1, human TLR9 (Homo sapiens, UniProt Q9NR96).
T1 sequence (Q9NR96 26-1032): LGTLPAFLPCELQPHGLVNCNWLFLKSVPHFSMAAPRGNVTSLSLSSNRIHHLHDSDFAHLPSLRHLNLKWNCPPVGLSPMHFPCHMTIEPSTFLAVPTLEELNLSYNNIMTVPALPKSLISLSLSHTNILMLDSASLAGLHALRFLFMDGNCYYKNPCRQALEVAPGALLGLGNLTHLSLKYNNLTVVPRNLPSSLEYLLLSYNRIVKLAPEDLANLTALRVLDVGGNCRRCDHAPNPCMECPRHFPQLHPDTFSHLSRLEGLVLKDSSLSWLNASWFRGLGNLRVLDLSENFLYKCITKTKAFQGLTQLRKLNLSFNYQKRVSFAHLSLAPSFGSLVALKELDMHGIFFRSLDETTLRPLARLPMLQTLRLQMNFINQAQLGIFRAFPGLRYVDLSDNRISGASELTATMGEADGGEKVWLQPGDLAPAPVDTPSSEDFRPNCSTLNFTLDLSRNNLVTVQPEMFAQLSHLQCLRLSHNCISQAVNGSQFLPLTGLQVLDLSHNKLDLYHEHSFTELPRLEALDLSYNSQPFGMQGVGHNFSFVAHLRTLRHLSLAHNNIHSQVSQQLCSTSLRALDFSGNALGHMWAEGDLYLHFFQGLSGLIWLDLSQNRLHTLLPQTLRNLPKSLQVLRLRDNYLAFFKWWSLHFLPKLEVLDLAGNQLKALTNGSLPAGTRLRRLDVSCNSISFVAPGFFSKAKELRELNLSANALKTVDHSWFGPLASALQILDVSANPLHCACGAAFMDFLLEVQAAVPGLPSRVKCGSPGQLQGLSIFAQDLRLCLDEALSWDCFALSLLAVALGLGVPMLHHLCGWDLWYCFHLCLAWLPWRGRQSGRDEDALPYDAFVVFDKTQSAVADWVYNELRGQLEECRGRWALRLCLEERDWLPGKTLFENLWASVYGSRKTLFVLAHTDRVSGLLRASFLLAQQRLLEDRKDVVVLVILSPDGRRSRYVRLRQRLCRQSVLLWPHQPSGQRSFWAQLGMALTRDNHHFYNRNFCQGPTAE
The experiment in a line: HEK293-Blue-hTLR-9 cells assay (SEAP reporter, ODN2006 stimulation). The note with it: HEK293-Blue-hTLR9 cells, ODN2006, 20 hrs incubation; read-out: HEK/hTLR9 IC50. Type of assay: cell-based. On the procedure:
The following tests were carried out in order to determine the activity of the compounds of formula (I), (Ia) or (Ib) in HEK293-Blue-hTLR-7/8/9 cells assay.
HEK293-Blue-hTLR-9 Cells Assay:
A stable HEK293-Blue-hTLR-9 cell line was purchased from InvivoGen (Cat.#: hkb-htlr9, San Diego, Calif., USA). These cells were originally designed for studying the stimulation of human TLR9 by monitoring the activation of NF-κB. A SEAP (secreted embryonic alkaline phosphatase) reporter gene was placed under the control of the IFN-β minimal promoter fused to five NF-κB and AP-1-binding sites. The SEAP was induced by activating NF-κB and AP-1 via stimulating HEK-Blue hTLR9 cells with TLR9 ligands. Therefore the reporter expression was declined by TLR9 antagonist under the stimulation of a ligand, such as ODN2006 (Cat.#: tlrl-2006-1, Invivogen, San Diego, Calif., USA), for incubation of 20 hrs. The cell culture supernatant SEAP reporter activity was determined using QUANTI-Blue™ kit (Cat.#: rep-qb1, Invivogen, San Diego, Calif., USA) at a wavelength of 640 nm, a detection medium that turns purple or blue in the presence of alkaline phosphatase.
HEK293-Blue-hTLR9 cells were incubated at a density of 250,000-450,000 cells/mL in a volume of 170 μL in a 96-well plate in Dulbecco's Modified Eagle's medium (DMEM) containing 4.5 g/L glucose, 50 U/mL penicillin, […], 2 mM L-glutamine, 10% (v/v) heat-inactivated fetal bovine serum with addition of 20 μL test compound in a serial dilution in the presence of final DMSO at 1% and 10 μL of 20 uM ODN2006 in above DMEM, perform incubation under 37° C. in a CO2 incubator for 20 hrs. Then 20 μL of the supernatant from each well was incubated with 180 μL Quanti-blue substrate solution at 37° C. for 2 h and the absorbance was read at 620-655 nm using a spectrophotometer. The signaling pathway that TLR9 activation leads to downstream NF-κB activation has been widely accepted, and therefore similar reporter assay was modified for evaluating TLR9 antagonist.

For `C[C@@H]1CN(c2ccc(C#N)c3ncccc23)C[C@@H]2Cc3cc(N4C[C@@H]5CNCCN5C4=O)ccc3CN21` (single isomer, unassigned) [Example 17A], the IC50 worked out at 107 nM.

As for `C[C@@H]1CN(c2ccc(C#N)c3ncccc23)C[C@@H]2Cc3cc(N4C[C@H]5CNCCN5C4=O)ccc3CN21` (single isomer, unassigned) [Example 17B], the IC50 was 106 nM.

`C[C@@H]1CN(c2ccc(C#N)c3ncccc23)C[C@@H]2Cc3cc(N4CC5NCCOC5C4)ccc3CN21` (stereo in doubt) [Example 10, 5-[(4R,11aS)-9-[(4aS,7aS)-3,4,4a,5,7,7a-hexahydro-2H-pyrrolo[3,4-b][1,4]oxazin-6-yl]-4-methyl-1,3,4,6,11,11a-hexahydropyrazino[1,2-b]isoquinolin-2-yl]quinoline-8-carbonitrile]: the IC50 was 78.2 nM.

As to `C[C@@H]1CN(c2ccc(C#N)c3ncccc23)C[C@@H]2Cc3ccc(N4CCOCC(N)C4)cc3CN21` (stereo partly drawn) [Example 1, 5-[(4R,11aS)-8-(6-amino-1,4-oxazepan-4-yl)-4-methyl-1,3,4,6,11,11a-hexahydropyrazino[1,2-b]isoquinolin-2-yl]quinoline-8-carbonitrile], the IC50 worked out at 64.6 nM.

As for `C[C@@H]1CN(c2ccc(C#N)c3ncccc23)C[C@@H]2Cc3ccc(NCCN4CC[C@H](O)C4)cc3CN21` [Example 2, 5-[(4R,11aS)-8-[2-[(3S)-3-hydroxypyrrolidin-1-yl]ethylamino]-4-methyl-1,3,4,6,11,11a-hexahydropyrazino[1,2-b]isoquinolin-2-yl]quinoline-8-carbonitrile], the IC50 was determined as 44.5 nM.

Take `C[C@@H]1CN(c2ccc(C#N)c3ncccc23)C[C@@H]2Cc3ccc(OCCN(C)C)cc3CN21` [Example 5, 5-[(4R,11aS)-8-[2-(dimethylamino)ethoxy]-4-methyl-1,3,4,6,11,11a-hexahydropyrazino[1,2-b]isoquinolin-2-yl]quinoline-8-carbonitrile]: the IC50 was determined as 96.3 nM.

For `C[C@@H]1CN(c2ccc(C#N)c3ncccc23)C[C@@H]2Cc3cc(N[C@@H]4CNC[C@@H]4F)ccc3CN21` [Example 6, 5-[(4R,11aS)-4-methyl-9-[[(3R,4S)-4-fluoropyrrolidin-3-yl]amino]-1,3,4,6,11,11a-hexahydropyrazino[1,2-b]isoquinolin-2-yl]quinoline-8-carbonitrile], the IC50 was 106 nM.

`CO[C@H]1CNC[C@H]1Nc1ccc2c(c1)C[C@H]1CN(c3ccc(C#N)c4ncccc34)C[C@@H](C)N1C2` [Example 7, 5-[(4R,11aS)-9-[[(3R,4S)-4-methoxypyrrolidin-3-yl]amino]-4-methyl-1,3,4,6,11,11a-hexahydropyrazino[1,2-b]isoquinolin-2-yl]quinoline-8-carbonitrile]: the IC50 amounted to 109 nM.

With `C[C@@H]1CN(c2ccc(C#N)c3ncccc23)C[C@@H]2Cc3cc(N4C[C@@H](F)[C@@H](N)C4)ccc3CN21` [Example 8, 5-[(4R,11aS)-9-[(3S,4R)-3-amino-4-fluoro-pyrrolidin-1-yl]-4-methyl-1,3,4,6,11,11a-hexahydropyrazino[1,2-b]isoquinolin-2-yl]quinoline-8-carbonitrile], the IC50 was 85.3 nM.

For `CO[C@H]1CN(c2ccc3c(c2)C[C@H]2CN(c4ccc(C#N)c5ncccc45)C[C@@H](C)N2C3)C[C@H]1N` [Example 9, 5-[(4R,11aS)-9-[(3R,4S)-3-amino-4-methoxy-pyrrolidin-1-yl]-4-methyl-1,3,4,6,11,11a-hexahydropyrazino[1,2-b]isoquinolin-2-yl]quinoline-8-carbonitrile], the IC50 is 139 nM.

Regarding `C[C@@H]1CN(c2ccc(C#N)c3ncccc23)C[C@@H]2Cc3cc(OCCN(C)C)ccc3CN21` [Example 11, 5-[(4R,11aS)-9-[2-(dimethylamino)ethoxy]-4-methyl-1,3,4,6,11,11a-hexahydropyrazino[1,2-b]isoquinolin-2-yl]quinoline-8-carbonitrile], the IC50 came to 81 nM.

As for `C[C@@H]1CN(c2ccc(C#N)c3ncccc23)C[C@@H]2Cc3cc(OC[C@@H]4CCN4)ccc3CN21` [Example 12, 5-[(4R,11aS)-9-[[(2S)-azetidin-2-yl]methoxy]-4-methyl-1,3,4,6,11,11a-hexahydropyrazino[1,2-b]isoquinolin-2-yl]quinoline-8-carbonitrile], the IC50 stood at 116 nM.

Consider `C[C@@H]1CN(c2ccc(C#N)c3ncccc23)C[C@@H]2Cc3cc(N4CCN(C(=O)C(C)(C)N)CC4)ccc3CN21` [Example 13, 5-[(4R,11aS)-9-[4-(2-amino-2-methyl-propanoyl)piperazin-1-yl]-4-methyl-1,3,4,6,11,11a-hexahydropyrazino[1,2-b]isoquinolin-2-yl]quinoline-8-carbonitrile], for which the IC50 is 85.6 nM.

On to `C[C@@H]1CN(c2ccc(C#N)c3ncccc23)C[C@@H]2Cc3cc(N4CCN(C(=O)[C@]5(C)CCCN5)CC4)ccc3CN21` [Example 14, 5-[(4R,11aS)-4-methyl-9-[4-[(2S)-2-methylpyrrolidine-2-carbonyl]piperazin-1-yl]-1,3,4,6,11,11a-hexahydropyrazino[1,2-b]isoquinolin-2-yl]quinoline-8-carbonitrile], for which the IC50 amounted to 254 nM.

Consider `C[C@@H]1CN(c2ccc(C#N)c3ncccc23)C[C@@H]2Cc3cc(N4C[C@@H]5C[C@H]4CN5C(=O)C(C)(C)N)ccc3CN21` [Example 15, 5-[(4R,11aS)-9-[(1S,4S)-5-(2-amino-2-methyl-propanoyl)-2,5-diazabicyclo[2.2.1]heptan-2-yl]-4-methyl-1,3,4,6,11,11a-hexahydropyrazino[1,2-b]isoquinolin-2-yl]quinoline-8-carbonitrile], for which the IC50 was 125 nM.

For `C[C@@H]1CN(c2ccc(C#N)c3ncccc23)C[C@@H]2Cc3cc(N4CC(N)CC4=O)ccc3CN21` (stereo partly drawn) [Example 16, 5-[(4R,11aS)-9-(4-amino-2-oxo-pyrrolidin-1-yl)-4-methyl-1,3,4,6,11,11a-hexahydropyrazino[1,2-b]isoquinolin-2-yl]quinoline-8-carbonitrile], the IC50 was 125 nM.

In the case of `C[C@@H]1CN(c2ccc(C#N)c3ncccc23)C[C@@H]2Cc3cc(N4CC5CCNCC5C4=O)ccc3CN21` (stereo partly drawn) [Example 18, 5-[(4R,11aS)-4-methyl-9-(3-oxo-3a,4,5,6,7,7a-hexahydro-1H-pyrrolo[3,4-c]pyridin-2-yl)-1,3,4,6,11,11a-hexahydropyrazino[1,2-b]isoquinolin-2-yl]quinoline-8-carbonitrile], the IC50 was found to be 64.6 nM.

As to `C[C@@H]1CN(c2ccc(C#N)c3ncccc23)C[C@@H]2Cc3cc(N4CC5CNCCC5C4=O)ccc3CN21` (stereo partly drawn) [Example 19, 5-[(4R,11aS)-4-methyl-9-(1-oxo-3a,4,5,6,7,7a-hexahydro-3H-pyrrolo[3,4-c]pyridin-2-yl)-1,3,4,6,11,11a-hexahydropyrazino[1,2-b]isoquinolin-2-yl]quinoline-8-carbonitrile], the IC50 is 44.5 nM.
